Test system: SGK2
Experiment: Inhibition of kinase activity by SGK2 inhibitory compounds, single concentration
Format: biochemical
Settings: 10 μM compound
Source text: A library of compounds was screened for inhibitors of SGK2 and PAK3 activity by assaying phosphorylation of a generic peptide substrate either directly; or indirectly by inhibiting upstream kinase PDK1 from activating the enzyme in vitro. In both cases, the phosphorylated substrate was detected using a specific anti-phospho peptide antibody that is coupled with Eu^3+ Cryptate and XL665 conjugated with streptavidin. […] All initial hits were re-assayed as a dose response series with eight 3-fold dilutions and resulting final concentrations ranged from 0.9 nM to 20 μM.

| SMILES | % Inhibition at 10 μM [%] |
| --- | --- |
| Oc1cc(O)c2c(c1)O[C@@]1(c3ccc(O)c(O)c3)Oc3cc(O)c4c(c3[C@@H]2[C@H]1O)O[C@H](c1ccc(O)c(O)c1)[C@H](O)[C@H]4c1c(O)cc(O)c2c1O[C@H](c1ccc(O)c(O)c1)[C@H](O)C2 [LDN-0022358] | 93 |
| O=C(OC1Cc2c(O)cc(O)cc2OC1c1cc(O)c(O)c(O)c1)c1cc(O)c(O)c(O)c1 (centres unmarked) [LDN-0022369] | 92 |
| CC1=C(C(=O)OCc2ccc3c(c2)OCO3)C(c2cccc(Oc3ccccc3)c2)NC(=O)N1 (centres unmarked) [LDN-0025562] | 60 |
| O=[N+]([O-])c1c(Cl)cc(O)c2c1C1C=CCC1C(c1ccccc1)N2 (centres unmarked) [LDN-0026088] | 70 |
| N#Cc1c(N)nc(SCC(=O)c2ccc(O)c(O)c2)c(C#N)c1-c1ccc(O)cc1 [LDN-0028574] | 91 |
| CCOC(=O)C1C(=O)NC(SCC(=O)Nc2ccc(Br)cc2)=C(C#N)C1c1ccccc1OCC (centres unmarked) [LDN-0028584] | 68 |
| N#Cc1c(N)nc(SCC(=O)Nc2ccc([N+](=O)[O-])c3ccccc23)c(C#N)c1-c1ccco1 [LDN-0028673] | 71 |
| O=C(CSc1nnc(-c2ccco2)[nH]1)c1ccc(O)c(O)c1 [LDN-0031187] | 67 |
| O=C(CSc1nnc(-c2ccncc2)[nH]1)c1ccc(O)c(O)c1 [LDN-0031199] | 68 |
| CC(=O)Oc1ccc(C2Nc3c(C(=O)O)ccc([N+](=O)[O-])c3C3C=CCC32)cc1 (centres unmarked) [LDN-0033447] | 65 |
| O=C(C=Cc1ccco1)c1ccc2c(c1)C1C=CCC1C(c1ccc(Cl)cc1)N2 (centres unmarked) [LDN-0033450] | 94 |
| NS(=O)(=O)c1ccc(CCNC(=O)c2ccc3c(=O)n(Cc4ccco4)c(=S)[nH]c3c2)cc1 [LDN-0036137] | 74 |
| O=C(NCCCN1CCCCCC1)c1ccc(Cn2c(=S)[nH]c3ccc(Br)cc3c2=O)cc1 [LDN-0036382] | 67 |
| O=C(Nc1ccc(O)c(-c2nc3ccccc3s2)c1)c1cccc(N2C(=O)CCC2=O)c1 [LDN-0041592] | 74 |
| Cc1cc2c3c(c(Br)cc(S(=O)(=O)O)c3n1)C(=O)c1ccccc1-2 [LDN-0042012] | 87 |
| O=C(O)c1cc2c3c(c1)C1C=CCC1CN3CC1CC=CC21 (centres unmarked) [LDN-0043107] | 73 |
| CSc1ccc(-c2nc(-c3ccc(Sc4ccccc4)cc3)c(-c3ccccc3)[nH]2)cc1 [LDN-0044047] | 65 |
| Oc1ccc(-c2nc(-c3ccc4sc5ccccc5c4c3)c(-c3ccccc3)[nH]2)cc1 [LDN-0044883] | 64 |
| Oc1ccc(-c2nc(-c3ccc4sc5ccccc5c4c3)c(-c3ccccc3)[nH]2)cc1O [LDN-0044885] | 70 |
| COc1cccc(C2Nc3cccc4cccc(c34)N2)c1OC [LDN-0045022] | 73 |
| Oc1cccc(C2Nc3cccc4cccc(c34)N2)c1 [LDN-0045024] | 90 |

| SMILES | % Inhibition at 10 μM [%] |
| --- | --- |
| CCN(CC)c1ccc(C2Nc3cccc4cccc(c34)N2)c(O)c1 [LDN-0045032] | 68 |
| Oc1ccccc1C1Nc2cccc3cccc(c23)N1 [LDN-0045035] | 89 |
| Oc1ccc(C2Nc3cccc4cccc(c34)N2)c(O)c1 [LDN-0045038] | 91 |
| C=CCc1cccc(C2Nc3cccc4cccc(c34)N2)c1O [LDN-0045040] | 89 |
| CN(C)c1ccc(C2=Nc3cccc4cccc(c34)N2)cc1 [LDN-0047445] | 79 |
| N#CC1=C(NC(=O)Cc2ccccc2)c2ccccc2CC12CCCCC2 [LDN-0047862] | 95 |
| c1ccc(Sc2ccc(-c3nc(-c4ccccc4)[nH]c3-c3ccccc3)cc2)cc1 [LDN-0048956] | 68 |
| C1=CC2c3cccc4c3N(CC2C1)CC1CC=CC41 (centres unmarked) [LDN-0050317] | 69 |
| O=c1c(O)c(-c2ccc(O)c(O)c2)oc2cc(O)cc(O)c12 [LDN-0052529] | 89 |
| O=c1c(O)c(-c2ccc(O)c(O)c2)oc2cc(O)ccc12 [LDN-0058389] | 76 |
| CN(C)c1ccc(NC(=O)Nc2cccs2)cc1 [LDN-0058882] | 61 |
| O=c1oc2cc(Br)c(O)c(Br)c2s1 [LDN-0060240] | 94 |
| Nc1ccc2[nH]c(C=Cc3ccccc3)nc2c1 [LDN-0060426] | 71 |
| CN(C)c1ccc(C=Cc2nc3cc(N)ccc3[nH]2)cc1 [LDN-0060496] | 67 |
| Nc1ccc2[nH]c(C=Cc3ccc(Cl)cc3)nc2c1 [LDN-0060498] | 68 |
| CN(C)c1ccc(-c2nc3cc(N)ccc3[nH]2)cc1 [LDN-0060537] | 72 |
| O=c1oc2c(Br)c(O)c(Br)cc2s1 [LDN-0060733] | 93 |
| O=C(O)C1Nc2ccc(Br)cc2C2C=CCC12 (centres unmarked) [LDN-0061702] | 92 |
| Cc1ccc(C)n1-c1ccc(O)c(C(=O)O)c1 [LDN-0062564] | 90 |
| O=C(O)C1Nc2c(O)cccc2C2C=CCC12 (centres unmarked) [LDN-0062847] | 95 |
| O=c1cc(-c2ccccc2)c2ccc(O)c(O)c2o1 [LDN-0063260] | 98 |

| SMILES | % Inhibition at 10 μM [%] |
| --- | --- |
| Nc1ccc2oc3ccc(N)cc3c(=O)c2c1 [LDN-0063356] | 50 |
| Oc1ccccc1-c1cc(-c2ccco2)[nH]n1 [LDN-0064229] | 85 |
| CN1c2ccccc2Sc2cc(N)ccc21 [LDN-0065927] | 52 |
| Nc1ccc2[nH]c(-c3ccco3)nc2c1 [LDN-0065931] | 78 |
| CC(C)COC(=O)c1ccc2c(c1)C1C=CCC1C(C(=O)O)N2 (centres unmarked) [LDN-0068134] | 84 |
| N#Cc1c(-c2ccco2)cc(-c2cccs2)nc1N [LDN-0071067] | 80 |
| Cc1c2ccccc2nc2c(F)c(NCCO)c(F)c(F)c12 [LDN-0071563] | 88 |
| Cc1c2ccccc2nc2c(F)c(NC(C)C)c(F)c(F)c12 [LDN-0071567] | 88 |
| COc1cccc(=O)c2c(C)n(CC(=O)c3ccccc3)c(C)c12 [LDN-0071595] | 64 |
| Oc1ccc(-c2csc(NCc3ccco3)n2)cc1 [LDN-0071858] | 65 |
| CNC(=O)Oc1c(Br)cc2sc(=O)oc2c1Br [LDN-0072860] | 72 |
| CN(C)c1ccc2nc(SCC(=O)c3ccccc3)sc2c1 [LDN-0073108] | 70 |
| Nc1ccc2c(c1)OC1(CCCC1)O2 [LDN-0073507] | 74 |
| CCCc1cc2c(cc1N)OCO2 [LDN-0073854] | 67 |
| Oc1c(Cl)cc(Cl)c2c1NCCC2 [LDN-0073973] | 67 |
| O=C1CC(N2CCCCC2)C=C1Nc1ccc(F)cc1 (centres unmarked) [LDN-0074168] | 73 |
| CCC(=O)N1CCc2cc(Br)cc(S(=O)(=O)Nc3ccc(Br)cc3)c21 [LDN-0074939] | 67 |
| CC#CC1=C(CO)C(=O)C2OC2C1=O (centres unmarked) [LDN-0080086] | 71 |
| Oc1ccc(N=Cc2ccc[nH]2)cc1N=Cc1ccc[nH]1 [LDN-0085170] | 62 |
| Oc1ccc(Cl)cc1-c1cc(-c2ccco2)n[nH]1 [LDN-0086824] | 68 |
| Cc1sc(NC(=O)COc2cccc(F)c2)c(C#N)c1C [LDN-0086947] | 67 |

| SMILES | % Inhibition at 10 μM [%] |
| --- | --- |
| Oc1cccc2ccc(Nc3ccccn3)nc12 [LDN-0088017] | 84 |
| O=C(O)C1C2CC=CC2c2cc(Br)cc3c2N1CC1CC=CC31 (centres unmarked) [LDN-0088050] | 67 |
| c1coc(C2=Nc3cccc4cccc(c34)N2)c1 [LDN-0088682] | 80 |
| CCOc1ccc(NC(=O)CSc2ncnc3c2oc2ccccc23)cc1 [LDN-0094202] | 78 |
| Cc1cc(N)c2ccccc2[n+]1CCCCCCCCCC[n+]1c(C)cc(N)c2ccccc21.[Cl-].[Cl-] [LDN-0096422] | 79 |
| O=C(O)c1cc(O)c(=O)c2c(O)c(O)ccc2c1 [LDN-0096503] | 73 |
| C=C1c2cccc(O)c2C(=O)C2=C(O)C3(O)C(=O)C(C(N)=O)=C(O)C(N(C)C)C3C(O)C12.Cl (centres unmarked) [LDN-0096663] | 70 |
| O=c1cc(-c2ccccc2)oc2cc(O)c(O)c(O)c12 [LDN-0096673] | 67 |
| Oc1cc(O)c2c(c1)OC(O)(c1ccc(O)c(O)c1)C(O)C2 (centres unmarked) [LDN-0096696] | 84 |
| O=C(OC1Cc2c(O)cc(O)cc2OC1c1ccc(O)c(O)c1)c1cc(O)c(O)c(O)c1 (centres unmarked) [LDN-0096721] | 93 |
| O=c1c(O)cccc2cc(O)c(O)c(O)c12 [LDN-0096727] | 94 |
| O=c1c(O)cccc2ccc(O)c(O)c12 [LDN-0096728] | 87 |
| CC(=O)Oc1cc(-c2coc3cc(OC(C)=O)c(OC(C)=O)c(OC(C)=O)c3c2=O)cc(OC(C)=O)c1OC(C)=O [LDN-0096738] | 96 |
| O=c1cc(C2Oc3cc(O)cc(O)c3CC2O)cc2c(C3Oc4cc(O)cc(O)c4CC3O)cc(O)c(O)c2c1O (centres unmarked) [LDN-0096771] | 89 |
| O=c1c(-c2cc(O)c(O)c(O)c2)coc2cc(O)c(O)c(O)c12 [LDN-0096812] | 97 |
| Oc1cc2c(cc1O)C1c3ccc(O)c(O)c3OCC1(O)C2 (centres unmarked) [LDN-0096990] | 91 |
| Oc1cc(O)c2c(c1)OC(c1cc(O)c(O)c(O)c1)C(O)C2 (centres unmarked) [LDN-0097128] | 68 |
| C=C1c2c(Cl)ccc(O)c2C(=O)C2=C(O)C3(O)C(=O)C(C(N)=O)=C(O)C(N(C)C)C3C(O)C12.O=C(O)c1cc(S(=O)(=O)O)ccc1O (centres unmarked) [LDN-0097423] | 76 |
| O=c1oc2c(O)c(O)cc3c(=O)oc4c(O)c(O)cc1c4c23 [LDN-0097519] | 85 |
| O=C1C=C2CC3(O)COc4c(ccc(O)c4O)C3=C2C=C1O (centres unmarked) [LDN-0097524] | 93 |
